From ChEMBL document CHEMBL1800007, “Synthesis, activity, and structural analysis of novel α-hydroxytropolone inhibitors of human immunodeficiency virus reverse transcriptase-associated ribonuclease H” (J Med Chem, 2011)
Activity calls are given as the source filed them. The rule behind the calls is not given here.

What was measured:
[1] = target: Human immunodeficiency virus type 1 reverse transcriptase (Human immunodeficiency virus 1, UniProt Q72547); test: Inhibition of RNase H activity of his6-tagged HIV1 HXB2 reverse transcriptase p66/p51 expressed in Escherichia coli assessed as substrate cleavage at polypurine tract by PAGE-based fluorescent imaging method
[2] = tested on: Human immunodeficiency virus 1; test: Antiviral activity against HIV1 RF infected in human CEM-SS cells assessed as protection against virus-induced cytopathic effect; type: functional, organism-based
[3] = target: Human immunodeficiency virus type 1 reverse transcriptase (Human immunodeficiency virus 1) (UniProt Q72547); conditions: HXB2, at 20 µM
Description: Inhibition of DNA dependent DNA polymerase activity of his6-tagged HIV1 HXB2 reverse transcriptase p66/p51 expressed in Escherichia coli at 20 uM using fluorescently tagged duplex DNA substrate by PAGE and fluorescent imaging method

[4] = tested on: Human immunodeficiency virus 1; conditions: at 20 µM
Description: Inhibition of DNA dependent DNA polymerase activity of his6-tagged HIV1 HXB2 reverse transcriptase p66 E478Q/p51 mutant expressed in Escherichia coli at 20 uM using fluorescently tagged duplex DNA substrate by PAGE and fluorescent imaging method

[5] = tested on: Human immunodeficiency virus 1; conditions: at 20 µM; remark: listed apart in the source
Description: Inhibition of DNA dependent DNA polymerase activity of his6-tagged HIV1 HXB2 reverse transcriptase p66 D549A/p51 mutant expressed in Escherichia coli at 20 uM using fluorescently tagged duplex DNA substrate by PAGE and fluorescent imaging method

CEM-SS = test: (§1) Cytotoxicity against human CEM-SS cells; type: cell-based; conditions: cem-ss
[6] = Therapeutic index, CC50 for human CEM-SS cells to EC50 for HIV1 RF; type: cell-based
[7] = as §1; type: cell-based; conditions: CEM-SS cells
[8] = Human immunodeficiency virus 1, RF, CEM-SS, read-out: EC50

## C=C(C)[C@H]1CCc2c(c(C)cc(O)c(=O)c2O)C1
[1]
  IC50: 0.6 µM
[2]; cem-ss
  EC50: Not Active
[3]
  inhibition: inactive
[4]
  inhibition: inactive
[5]
  inhibition: inactive

## Cc1cc(O)c(=O)c(O)c2c1C[C@@H](C(C)(O)CN1CCCCC1)CC2 (mixture of isomers)
[1]
  IC50: 0.82 µM
[2]; [8]
  EC50: 10.2 µM
CEM-SS
  CC50: > 50 µM
[6]
  selectivity ratio: 4.9
[4]
  inhibition: inactive
[5]
  inhibition: inactive

## Cc1cc(O)c(=O)c(O)c2c1C[C@@H](C(C)(O)Cn1ccnc1)CC2 (mixture of isomers)
[2]; [8]
  EC50: 42.1 µM
CEM-SS
  CC50: > 50 µM
[3]
  inhibition: inactive
[4]
  inhibition: inactive
[5]
  inhibition: inactive

## CCN(CC)CC(C)(O)[C@H]1CCc2c(c(C)cc(O)c(=O)c2O)C1 (mixture of isomers)
[1]
  IC50: 0.5 µM
[2]
  inhibition (INH): <50%
CEM-SS
  CC50: > 50 µM
[3]
  inhibition: inactive
[4]
  inhibition: inactive
[5]
  inhibition: inactive

## Cc1cc(O)c(=O)c(O)c2c1C[C@@H](C(C)(O)CNCc1ccccc1F)CC2 (mixture of isomers)
[1]
  IC50: 1.2 µM
[2]; cem-ss
  EC50: Not Active
CEM-SS
  CC50: > 50 µM
[4]
  inhibition: inactive
[5]
  inhibition: inactive

## Cc1cc(O)c(=O)c(O)c2c1C[C@@H](C(C)(O)CNc1ccccc1)CC2 (mixture of isomers)
[1]
  IC50: 1.2 µM
[2]; [8]
  EC50: 7.4 µM
CEM-SS
  CC50: 31.7 µM
[4]
  inhibition: Active
[5]
  inhibition: Active

## CCSCC(C)(O)[C@H]1CCc2c(c(C)cc(O)c(=O)c2O)C1 (mixture of isomers)
[1]
  IC50: 0.38 µM
[2]
  inhibition (INH): <50%
CEM-SS
  CC50: 25.8 µM
[4]
  inhibition: inactive
[5]
  inhibition: inactive

## Cc1cc(O)c(=O)c(O)c2c1C[C@@H](C(C)(O)CSc1ccccc1)CC2 (mixture of isomers)
[1]
  IC50: 0.93 µM
[2]; [8]
  EC50: 11.5 µM
CEM-SS
  CC50: 17.8 µM
[4]
  inhibition: inactive
[5]
  inhibition: inactive

## Cc1cc(O)c(=O)c(O)c2c1C[C@@H](C(C)(O)CSCc1ccccc1)CC2 (mixture of isomers)
[1]
  IC50: 1.3 µM
[2]; [8]
  EC50: 4.2 µM
CEM-SS
  CC50: 17.4 µM
[4]
  inhibition: inactive
[5]
  inhibition: inactive

## CCS(=O)(=O)CC(C)(O)[C@H]1CCc2c(c(C)cc(O)c(=O)c2O)C1 (mixture of isomers)
[1]
  IC50: 0.24 µM
[2]
  inhibition (INH): <50%
CEM-SS
  CC50: 10.4 µM
[4]
  inhibition: inactive
[5]
  inhibition: inactive

## Cc1cc(O)c(=O)c(O)c2c1C[C@@H](C(C)(O)C[S+]([O-])c1ccccc1)CC2 (mixture of isomers)
[1]
  IC50: 1.3 µM
[2]; [8]
  EC50: 14.5 µM
CEM-SS
  CC50: > 50 µM
[4]
  inhibition: Active
[5]
  inhibition: Active

## Cc1cc(O)c(=O)c(O)c2c1C[C@@H](C(C)(O)CS(=O)(=O)c1ccccc1)CC2 (mixture of isomers)
[1]
  IC50: 0.51 µM
[2]; [8]
  EC50: 21.2 µM
CEM-SS
  CC50: > 50 µM
[4]
  inhibition: inactive
[5]
  inhibition: inactive

## CC(=O)Oc1cc(C)c2c(c(OC(C)=O)c1=O)CC[C@H](C(C)(O)CO)C2 (mixture of isomers)
[1]
  IC50: 1.9 µM
[2]; cem-ss
  EC50: Not Active
[7]
  CC50: > 50 µM
[3]
  inhibition: inactive
[4]
  inhibition: inactive
[5]
  inhibition: inactive

## Cc1cc(O)c(=O)c(O)c2c1C[C@@H](C(C)O)CC2 (mixture of isomers)
[1]
  IC50: 0.68 µM
[2]; [8]
  EC50: 6.9 µM
CEM-SS
  CC50: 26.1 µM
[4]
  inhibition: inactive
[5]
  inhibition: inactive

## Cc1cc(O)c(=O)c(O)c2c1C[C@@H](C(C)NCc1ccccc1)CC2 (mixture of isomers)
[1]
  IC50: 0.96 µM
[2]; [8]
  EC50: 10.6 µM
CEM-SS
  CC50: 16.7 µM
[4]
  inhibition: inactive
[5]
  inhibition: inactive

## CC(C)c1ccc(O)c(=O)c(O)c1 [BETA-THUJAPLICINOL]
[1]
  IC50: 0.21 µM
[2]; cem-ss
  EC50: Not Active
[7]
  CC50: 2.3 µM
[3]
  inhibition: inactive
[4]
  inhibition: inactive
[5]
  inhibition: inactive
